Experimental data as given in US20040171093A1, “Methods for detecting deficient cellular membrane tightly bound magnesium for disease diagnoses” (priority 1999, published 2004).
“And” between values parts separate entries of the source, which are not always exact repeats. Equal entries are not always repeated. “Also recorded” adds a separate entry of the source. Ends that are not written are not given here.

Legend:
[1] = tested on: magnesium deficient erythrocytes; test: Promotion of magnesium binding in magnesium depleted erythrocyte membranes (in vitro screen); format: cell-based, human; details: for Magnesium Binding: aged Mg-deficient human erythrocytes incubated in 5 mL medium, 37° C., three hours, peptide amount equimolar to 6 ugm Substance P, quadruplet mean (n) or duplicate values; for activity relative to Substance P in promoting magnesium binding / correcting the MgBD: equal molar amounts tested; for approximate ratios of binding activities: magnesium uptake in excess of KRPG alone, normal plasma = 1; for measurable binding of magnesium ions to the erythrocyte membrane (in words): uptake in excess of that with KRPG alone
Description: In order to identify those substances which promote binding of magnesium ion to plasma membranes (tightly bound magnesium ion) and that ameliorate or correct the magnesium binding defect, a deficit of membrane tightly bound magnesium was created experimentally in erythrocytes without the magnesium binding defect. Human erythrocytes were obtained from blood samples that had been drawn two days previously and kept for varying periods of time at room temperature, or at approximately 5° C. Preferred results were obtained with those samples in which either sodium citrate or sodium heparin was the anticoagulant. The length of time held and time held before moving to room temperature or 5° C is not believed to be critical. Although it was possible to create the MgBD in cells held as above, more reproducible results would be expected if fresh drawn blood were to be used.
The following procedure was employed to generate a deficit of plasma membrane tightly bound magnesium ion in the erythrocytes. Art recognized adaptations of this procedure can be used for generation of a deficit in other somatic cells, such as from urine or buccal cells. Samples of blood described above were kept at room temperature overnight and then pooled in a beaker placed in crushed ice and the blood was stirred slowly to collect any fibrin that may have formed. The blood was then centrifuged (600×g, 15 minutes) at 5° C. and the plasma layer removed by aspiration. Residual plasma was removed from the cells by suspending them twice in equal volumes of cold normal saline and then twice in equal volumes of cold Alsever's solution (trisodium citrate 32.5 mM, citric acid 2.7mM, D-glucose 114 mM, NaCl 137 mM, pH 6.1). Finally, the washed cells were suspended again in an equal volume of the same Alsever's solution to which approximately 1.25 mg/ml of sodium deoxycholate was added. This suspension was filtered through cheese cloth and kept at 4° C. with gently mixing once each day. Although the Alsever's plus sodium deoxycholate solution is a preferred example of a holding solution, any cell stabilizing buffer plus sodium deoxycholate may be utilized in the practice of the invention.
The concentration of magnesium ion tightly bound to the erythrocyte membranes was determined by using 5 mL portions of the approximately two day old blood sample and the stored erythrocyte suspension. After these portions were centrifuged as above and the supernatant fluids aspirated, the residues of cells were suspended four times in 15 mL portions of cold hemolyzing buffer (Tris Tris HCl 5 mM, sucrose 14 mM, pH 7.4) and centrifuged (15,000×g, 15 minutes). The supernatant fluids were removed by gentle aspiration. The decanting procedure was repeated as necessary to remove all of the dark red residue (Example 1). The penultimate residue was resuspended by gently pouring the hemolyzing buffer onto the residue and decanting the readily suspended cell membranes from the small, dark red, dense residue which adhered to the centrifuge tube. The final, nearly colorless residue of membranes was transferred and brought to a total volume of 25 mL in a volumetric flask using the hemolyzing buffer. These preparations of erythrocyte membranes were stored at 4° C. until the total protein contents were determined by the Bicinchoninic Acid procedure and the total magnesium contents determined by atomic absorption spectroscopy. From these values the concentrations of tightly bound magnesium in the cell membranes were expressed as nanograms of magnesium per 0.50 mg of membrane protein. This determination of the magnesium binding was repeated each day or so until the level of binding first ceased to decrease.
Preparations of aged erythrocytes in which the MgBD has been developed were used as soon as possible in incubations with normal blood plasma, and other magnesium containing fluids, in search of substances which could correct the MgBD (Example 7). […]

[2] = tested on: erythrocytes from essential hypertensive patients; test: Remediation of magnesium binding defect in vitro, erythrocytes from essential hypertensive patients; format: cell-based, human; details: incubated for 3 hrs. at 37° C.
Description: The effect of the tetrapeptide (SEQ ID NO:2) and pentapeptide (SEQ ID NO:1) on the binding of magnesium by the erythrocyte membrane was ascertained by measuring the magnesium contents of ghosts after the erythrocytes from essential hypertensive patients and normal controls were incubated with one or both of the peptides. For this purpose, two 10 ml samples of heparinized blood from essential hypertensive subjects were utilized. After the plasma was separated from the erythrocytes, the erythrocytes were washed twice with 10 ml of cold erythrocyte wash and the peptides were then added to the erythrocytes from the hypertensive subjects and the mixtures were incubated for 3 hrs. at 37° C., chilled on ice and the erythrocyte ghosts were prepared and analyzed for magnesium and protein as described in Example 1.

Sprague-Dawley rats [3] = test: Systolic blood pressure after i.v. peptide, tail-cuff method, normotensive control rats; format: in vivo, rat
Description: (§1) In this procedure the systolic blood pressure was measured in conscious animals by using the photoelectric, tail-cuff, compression method as follows. The animal was placed in an incubator at 40° for twenty minutes in order to elevate its body temperature. The cuff, which was placed around the tail, included sensor which provided the pressure signal which was recorded onto a chart. After the pre-injection pressure was recorded, the animal was immediately injected through the tail vein with 168 uL of a freshly prepared solution of the tetrapeptide (SEQ ID NO:2) in normal saline.
(§2) In the initial experiments, the blood pressure was recorded at 5, 10, 30, 60 and 300 minutes after the administration of the tetrapeptide. There was no further decrease in the blood pressure after 10 minutes and the blood pressure returned to the pre-injection level within 60 minutes. Therefore, in further experiments, the blood pressure of each animal was recorded 10 minutes after the injection of the tetrapeptide.

SS/Jr rats [4] = test: Tightly bound magnesium in erythrocyte membranes after i.v. tetrapeptide, hypertensive rats; format: in vivo, rat; details: intravenous administration
Description: (§3) The rats were allowed to rest for one day and then one-half of the SS/Jr and one-half of the Sprague-Dawley rats were injected as above with 3.0 ugm/kg of the tetrapeptide (SEQ ID NO:2). All of the rats were sacrificed by decapitation 30 minutes later and the blood from each rat was collected in a centrifuge tube containing sufficient heparin to prevent clotting. The blood samples were centrifuged (1,000×g, 20 minutes) at 5° C. and the individual plasma layers were removed and frozen. The residues of erythrocytes were suspended three times in cold, normal saline and then were hemolyzed by the addition of 15 mL of cold hemolyzing buffer (10 mM Tris Tris HCl, pH 7.4). This buffer was then used in the isolation of the erythrocyte membranes from these hemolysates and in the determination of their total magnesium and protein contents as described above.

SS/Jr rats [5] = test: Systolic blood pressure after i.v. tetrapeptide, tail-cuff method, hypertensive rats; format: in vivo, rat
Description: as §1, §2

Sprague-Dawley rats [6] = test: Plasma glucose (anthrone method) after i.v. tetrapeptide, Sprague-Dawley rats; format: in vivo, rat; details: 3.0 ugm/kg i.v., 30 minutes
Description: as §3
(§4) The glucose concentrations in the reserved plasma samples were determined by the anthrone method (Rendina, 1971). The concentrations in the injected SS/Jr rats were not different from those of the SS/Jr rats which were not injected with the tetrapeptide. This was also the case with the Sprague-Dawley control rats. Thus, the values of the SS/Jr rats were combined and compared with the combined, control values of the Sprague-Dawley rats as follows: 149.2±7.5 (15) vs. 100.7±11.2 (4) mg/100 mL., P<0.01. […]

Sprague-Dawley rats [7] = test: Tightly bound magnesium in erythrocyte membranes after i.v. tetrapeptide, normotensive control rats; format: in vivo, rat; details: intravenous administration
Description: as §3

SS/Jr rats [8] = test: Plasma glucose (anthrone method) after i.v. tetrapeptide, SS/Jr rats; format: in vivo, rat; details: 3.0 ugm/kg i.v., 30 minutes
Description: as §3, §4

normotensive subjects = details: Qu and Stuesse, 1990; cited from earlier work

Row | approximate ratios of binding activities [1] | measurable binding of magnesium ions to the erythrocyte membrane (in words) [1] | binding of magnesium to erythrocyte membranes of hypertensive subjects after incubation (in words) [2] | Substance | activity relative to Substance P in promoting magnesium binding / correcting the MgBD [1] | effect on blood pressure of normotensive rats (in words) (Sprague-Dawley rats [3]) | Magnesium Binding [1] | also measured
1 | ~4.6 | promoted measurable binding | returned to normal | Phe-Gly-Leu-Met-NH2 (FGLM-NH2; listed as Homo sapiens) [tetrapeptide] | about four times as active as Substance P; also recorded: significantly more active than Substance P; also recorded: several fold more active than Substance P | unaffected; also recorded: had no influence; also recorded: did not affect the blood pressures; also recorded: had no effect on systolic blood pressure |  | correction of the magnesium binding defect in erythrocytes (in words) (SS/Jr rats [4]): corrected; also recorded: corrects the magnesium binding defect; effect on blood pressure of hypertensive rats (in words) (SS/Jr rats [5]; SS/Jr rats, intravenous administration): fallen to control values; also recorded: corrected; also recorded: reduced the hypertensive blood pressure of the SS/Jr rats to the normal blood pressure of their controls; also recorded: reduced its systolic blood pressure from an elevated value of 210 mm Hg to the control value; time for blood pressure to fall to control values / no further decrease (SS/Jr rats [5]; after i.v. injection): ≤ 10 min; time for blood pressure to return to the pre-injection level (SS/Jr rats [5]; after i.v. injection): ≤ 60 min; plasma glucose concentration, injected versus not injected (Sprague-Dawley rats [6]): not different; Magnesium Binding ([1]; listed as 8-11 Substance P): 968 Nanograms of magnesium per 0.50 mg of membrane protein and 954 Nanograms of magnesium per 0.50 mg of membrane protein; effect on erythrocyte magnesium binding of control rats (in words) (Sprague-Dawley rats [7]): unaffected; also recorded: had no influence; plasma glucose concentration, injected versus not injected (SS/Jr rats [8]): not different
2 |  | no measurable activity |  | 1-9 Substance P: commercial preparation of amidated peptide derived from the N-terminal region of Substance P (RPKPQQFFG-NH2; UniProt P20366 58-66, looked up, fragment) [reference compound] |  |  | 500 Nanograms of magnesium per 0.50 mg of membrane protein and 490 Nanograms of magnesium per 0.50 mg of membrane protein | 

Further lines, the substance ahead of its results:

Row | Substance | approximate ratios of binding activities [1] | measurable binding of magnesium ions to the erythrocyte membrane (in words) [1] | binding of magnesium to erythrocyte membranes of hypertensive subjects after incubation (in words) [2] | activity relative to Substance P in promoting magnesium binding / correcting the MgBD [1] | effect on blood pressure of normotensive rats (in words) (Sprague-Dawley rats [3]) | Magnesium Binding [1] | also measured
3 | Phe-Phe-Gly-Leu-Met-NH2 (FFGLM-NH2; listed as Homo sapiens) [pentapeptide] | ~3.7 | promoted measurable binding | returned to normal | about four times as active as Substance P; also recorded: significantly more active than Substance P; also recorded: several fold more active than Substance P | had no effect on systolic blood pressure |  | Magnesium Binding ([1]; listed as 7-11 Substance P): 886 Nanograms of magnesium per 0.50 mg of membrane protein and 866 Nanograms of magnesium per 0.50 mg of membrane protein
4 | 9-11 Substance P: commercial preparation of amidated peptide derived from the C-terminal region of Substance P (Gly-Leu-Met-NH2; UniProt P20366 66-68, looked up, fragment) [reference compound] |  | no measurable activity |  |  |  | 546 Nanograms of magnesium per 0.50 mg of membrane protein and 510 Nanograms of magnesium per 0.50 mg of membrane protein | 
5 | Arg-Pro-Lys-Pro-Gln-Gln-Phe-Phe-Gly-Leu-Met-NH2 [Substance P, reference compound] | ~1.1 | promoted measurable binding |  |  |  |  | effect of intravenously injected Substance P on blood pressure (normotensive subjects): the reduction in blood pressure resulted in lower than normal values
